In patent US10005739B2, “Quinazolinone and isoquinolinone derivative” (CHUGAI SEIYAKU KABUSHIKI KAISHA, priority 2013, dated 2018):

Tests used:
DDR1 [1] = biological target: T1, DDR1 (Homo sapiens (Human), UniProt Q08345); test: Measurement of DDR1 binding activity (LanthaScreen Eu Kinase Binding Assay)
Protocol: 2. Measurement of DDR1 Binding Activity
DDR1 binding activity was measured using the LanthaScreen (Registered trademark) Eu Kinase Binding Assay (manufactured by Life Technologies Corporation). […] After one-hour reaction at room temperature, the fluorescence resonance energy transfer was measured.

[2] = tested on: human endometrial cancer cell line MFE-280; test: Measurement of antitumor effect in MFE-280 cancer-bearing nude mice; format: in vivo; conditions: MFE-280 xenograft in BALB/c nude mice, 200 mg/kg orally once daily, 11th day
DDR1 [3] = biological target: T1, DDR1; test: Measurement of DDR1 enzyme inhibitory activity (phosphorylation of biotinylated peptide, time-resolved fluorescence); format: biochemical; conditions: human DDR1 enzyme, biotinylated peptide phosphorylation; read-out: DDR1 enzyme inhibition assay IC50
Summary of the method: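 Baculovirus-expressed human DDR1 phosphorylated a biotinylated peptide, and inhibition of that phosphorylation was measured. Phosphopeptide was detected by time-resolved fluorescence using europium cryptate–labelled anti-phosphotyrosine antibody with streptavidin-XL665.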

T1 sequence (Q08345 19-913): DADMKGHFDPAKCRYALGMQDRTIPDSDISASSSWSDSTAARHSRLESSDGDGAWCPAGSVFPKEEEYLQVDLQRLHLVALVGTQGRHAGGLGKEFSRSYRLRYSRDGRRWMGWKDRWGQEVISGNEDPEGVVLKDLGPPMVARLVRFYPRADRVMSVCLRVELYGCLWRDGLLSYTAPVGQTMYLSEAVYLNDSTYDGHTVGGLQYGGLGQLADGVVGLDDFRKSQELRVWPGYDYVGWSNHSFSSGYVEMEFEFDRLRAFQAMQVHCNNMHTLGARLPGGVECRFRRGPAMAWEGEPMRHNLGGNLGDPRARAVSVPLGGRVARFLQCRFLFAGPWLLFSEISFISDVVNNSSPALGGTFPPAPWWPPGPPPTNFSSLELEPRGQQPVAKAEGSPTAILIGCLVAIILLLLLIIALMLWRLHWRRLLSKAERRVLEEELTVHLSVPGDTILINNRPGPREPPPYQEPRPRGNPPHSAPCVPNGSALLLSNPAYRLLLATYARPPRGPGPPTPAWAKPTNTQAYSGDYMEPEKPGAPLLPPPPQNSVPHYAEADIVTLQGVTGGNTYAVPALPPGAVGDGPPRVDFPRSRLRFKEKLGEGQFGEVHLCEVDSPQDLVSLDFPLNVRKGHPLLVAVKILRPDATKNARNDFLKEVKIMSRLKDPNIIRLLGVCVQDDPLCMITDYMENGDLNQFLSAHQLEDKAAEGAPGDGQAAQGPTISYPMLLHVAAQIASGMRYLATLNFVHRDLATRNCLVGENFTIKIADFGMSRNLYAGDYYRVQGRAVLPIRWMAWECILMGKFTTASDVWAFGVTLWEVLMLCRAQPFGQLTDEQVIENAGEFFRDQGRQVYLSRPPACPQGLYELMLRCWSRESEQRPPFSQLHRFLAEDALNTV

SMILES | IC50 (DDR1 [3]) [nM] | also measured
CCS(=O)(=O)c1ccc(Cl)cc1Cn1cnc2c(Cl)c(CO)c(C(F)(F)F)cc2c1=O [Compound K-26, 8-Chloro-3-[(5-chloro-2-ethylsulfonylphenyl)methyl]-7-(hydroxymethyl)-6-(trifluoromethyl)quinazolin-4-one] | – | IC50 (DDR1 [1]): 240 nM
CCS(=O)(=O)c1ccc(Cl)cc1Nn1cnc2ccc(OC(F)(F)F)cc2c1=O [Compound A-45, 3-(5-Chloro-2-ethylsulfonylanilino)-6-(trifluoromethoxy)quinazolin-4-one] | – | TGI after 11 days [2]: 72%
CCS(=O)(=O)c1ccc(C#N)cc1Nn1cnc2ncc(Br)cc2c1=O [Compound C-8, 3-[(6-Bromo-4-oxopyrido[2,3-d]pyrimidin-3-yl)amino]-4-ethylsulfonylbenzonitrile] | 6400 | –
CCS(=O)(=O)c1ccc(Cl)cc1Nn1cnc2ncc(C(F)(F)F)cc2c1=O [Compound A-24, 3-(5-Chloro-2-ethylsulfonylanilino)-6-(trifluoromethyl)pyrido[2,3-d]pyrimidin-4-one] | 190 | –
CCS(=O)(=O)c1ccc(Cl)cc1Cn1cnc2c(Cl)cc(OC(F)(F)F)cc2c1=O [Compound E-14, 8-Chloro-3-[(5-chloro-2-ethylsulfonylphenyl)methyl]-6-(trifluoromethoxy)quinazolin-4-one] | 120 | –

Further lines, with some results ahead:

IC50 (DDR1 [3]) [nM] | SMILES | also measured
430 | CCOc1ccc2ncn(Nc3cc(Cl)ccc3S(=O)(=O)CC)c(=O)c2c1 [Compound A-37, 3-(5-Chloro-2-ethylsulfonylanilino)-6-ethoxyquinazolin-4-one] | –
1350 | CCS(=O)(=O)c1ccc(Cl)cc1Nn1cnc2c(-c3ccc(F)cc3)cc(C)cc2c1=O [Compound A-4, 3-(5-Chloro-2-ethylsulfonylanilino)-8-(4-fluorophenyl)-6-methylquinazolin-4-one] | –
